From EPA's ToxValDB 9.5 (doi:10.2903/j.efsa.2006.68r)
≈ marks a conversion by molar mass, not a printed value.

Legend:
[1] = system: Aphidius rhopalosiphi; assay: LR50; higher = less toxic; conditions: not reported; mortality
[2] = system: Typhlodromus pyri; assay: LR50; higher = less toxic; conditions: not reported; mortality
[3] = system: Rattus norvegicus; conditions: for NOAEL: neurology
[4] = system: Oryctolagus sp.; conditions: reproduction developmental; clinical signs
[5] = system: Apis mellifera; conditions: acute, mortality
[6] = system: Bibionidae; conditions: chronic/long-term; duration: 28 days
[7] = system: Daphnia magna; conditions: chronic/long-term; duration: 21 days
[8] = system: Colinus virginianus
[9] = system: Pontoscolex corethrurus
[10] = system: Oncorhynchus mykiss

## CCOP(=O)(SC(C)CC)SC(C)CC (configuration not stated) [Cadusafos]
[1]
  LR50: 3.75 g/ha
[2]
  LR50: 44.4 g/ha
[3]; acute, oral, mortality
  LD50: 37.1 mg/kg
[3]; chronic, duration: 2 years, F
  NOAEL: 0.045 mg/kg-day
[3]; subchronic, duration: 90 days, oral, diet
  NOAEL: 0.067 mg/kg-day
[4]
  NOAEL: 0.3 mg/kg-day
[5]; dermal
  LD50: 1.8 µg/piece
[5]; oral, unspecified
  LD50: 2.07 µg/piece
[6]
  NOEC: 32 µg/kg
[7]
  NOEC: 0.231 mg/L
[8]; acute, oral, diet, mortality
  LC50: 10.8 mg/kg-day
[8]; acute, oral, mortality
  LD50: 16.1 mg/kg-day
[8]; reproduction developmental
  NOEL: ≥ 1.1 mg/kg-day
[9]; acute, mortality
  LC50: 12.5 mg/kg
[9]; chronic/long-term, reproduction
  NOEC: 1.8 mg/kg
[10]; acute, duration: 96 hours, mortality
  LC50: 130 µg/mL (≈ 481 µM)
[10]; chronic/long-term, duration: 95 days
  NOEC: 5.22 mg/L
